{"source": "patent US20090220445A1", "about": "“HAIR CARE COMPOSITIONS AND METHODS FOR INCREASING HAIR DIAMETER AND DELIVERING ADDITIONAL BENEFITS” (priority 2008, published 2009)", "test_system": "Primary human dermal papilla cells", "assay": "Synergy study: survival of metabolically stressed dermal papilla cells (ATP, Cell Titer Glo)", "type": "cell-based", "details": "cells metabolically stressed 48 hours in reduced media, control 100% water", "experimental": "The dermal papilla, in normal human hair, is the control center for hair diameter. Increasing survival of dermal papilla cells in situ leads to increased hair diameter. Accordingly, an increase in survival of dermal papilla cells correlates with an increase in hair diameter.\nPrimary human dermal papilla cells were metabolically stressed for 48 hours in reduced standard tissue culture media. During this period of stress the cells were treated with the mixtures or individual ingredients below. After 48 hr the metabolic activity of the cells was measured by the amount of ATP using the Cell Titer Glo™ kit (Promega).", "data": [{"compound": "CC(C)(CO)[C@@H](O)C(=O)NCCCO", "note": "[Panthenol]", "values": [{"measurement": "Survival rate: % Change from Control", "setting": "0.15%", "result": "+6%"}]}, {"compound": "NC(=O)c1cccnc1", "note": "[Niacinamide]", "values": [{"measurement": "Survival rate: % Change from Control", "setting": "0.006%", "result": "−8", "unit": "%"}]}, {"compound": "Cn1c(=O)c2c(ncn2C)n(C)c1=O", "note": "[Caffeine]", "values": [{"measurement": "Survival rate: % Change from Control", "setting": "0.05%", "result": "+41%"}]}]}
